Patent US7553484B2, “Modulating neuronal outgrowth via the major histocompatibility complex class I (MHC I) molecule” (The Regents of the University of California, priority 2001, dated 2009)
Entries after “also recorded” stand apart in the source; their conditions may differ.

System: retinal explant neurite outgrowth
Assay: Retina (alone) explant culture with and without recombinant MHC I (rsMHC I)
Assay type: cell-based, mouse
Conditions: for overall protection against the effects of rsMHC I (summary): FIG. 5; for neurite outgrowth in cultures containing rsMHC I, compound added vs rsMHC I alone / neurite outgrowth with rsMHC I plus compound compared with control levels: ACPD 50 uM, cAMP 20 uM, Forskolin 5 uM; for neurite outgrowth in cultures containing rsMHC I, compound added vs rsMHC I alone: 3 days
Procedure: To rule out the possibility that the MHC I-tg thalami inhibit retinal growth indirectly due to an alteration in the milieu of neuroactive molecules they secrete, wt retinas were cultured alone, in the presence, or absence of recombinantly produced MHC I D^b (rMHC I). The rMHC I was obtained by transfecting COS cells with a recombinant plasmid that directs the expression of a MHC I D^b lacking a membrane anchor and harvesting the conditioned media.
A truncated MHC I ^Db mini-gene (containing exons 1-4 plus a stop codon) was subcloned into pIRES (Invitrogen). Due to the lack of a transmembrane spanning region (exons 5 and 6), this MHC I molecule is secreted. COS cells were transfected (using lipofectamine, GIBCO) with the parental plasmid, or the plasmid encoding soluble MHC I D^b. […] Forty eight hours later, the conditioned media was harvested and added to fresh explant co-cultures of wt retina and thalamus at final dilutions of 1:1, 1:4, 1:20 or 1:100. To some cultures, monoclonal antibodies to MHCI D^b or D^k were added to both the matrigel (before its solidification) and the media (0.005 mg/ml). Both the conditioned media and the antibodies were coded. The co-cultures were incubated for 4-5 days, fixed, and scored in a blinded fashion as described above. Duplicates of each group were tested simultaneously in 4 separate experiments.
E14 day embryos from C57Bl6 and Balb/c mice were dissected in Leibovitz's L-15 media (Gibco BRL). The retinas were isolated and placed in a matrigel matrix (Growth Factor Reduced Basement membrane matrix, Collaborative Biomedical Products) in a chamber slide (Fisher LabTech). The slides were then incubated at 37° C. for 60 minutes to solidify the gel. Neurobasal medium (Gibco BRL), containing L-glutamine, antibiotics and 1× B27 supplement) was added to each chamber (0.25 ml). Inhibition of axon outgrowth by rsMHC I was tested by addition of conditioned culture media from COS cells containing rsMHC I or control media to the normal culture media. Compounds that modulate cAMP levels were added at the following concentrations to the matrigel and the culture media: Forskolin (5 uM), a drug that activates adenyl cyclase and endogenous production of cAMP; and Rp-cAMPS (20 uM), the R diasteriomer of adenosine 3′,5′-(cyclic) phosphorothioate, a non-hydrolyzable antagonist of cAMP. The cultures were incubated further at 37° C., 5% CO2. After incubating for 3 days, the experiment was terminated by replacing the buffer with 4% PFA and storing the slides at 4° C. Statistical Analysis was done by Student's test.

Nc1ncnc2c1ncn2[C@@H]1O[C@@H]2CO[P@@](O)(=S)O[C@H]2[C@H]1O [Rp-cAMPS, R diasteriomer of adenosine 3′,5′-(cyclic) phosphorothioate]
overall protection against the effects of rsMHC I (summary): very efficient at blocking the effects of rsMHC I | retinal explant outgrowth in control cultures (media alone, no rsMHC I) (Rp-cAMPS 20 uM): no effect | neurite outgrowth in cultures containing rsMHC I, compound added vs rsMHC I alone (Rp-cAMPS 20 uM): completely prevented the inhibitory effects of rsMHC I; also recorded: can reverse this inhibitory effect | neurite outgrowth in cultures containing rsMHC I, compound added vs rsMHC I alone (Rp-cAMPS 20 uM, listed as Rp-cAMPs): completely prevented the inhibitory effects of rMHC I; also recorded: prevented the inhibitory action of rMHC I

N[C@@]1(C(=O)O)CC[C@@H](C(=O)O)C1 [ACPD, 1-amino-(1S,3R)-cyclo pentanedicarboxylic acid]
neurite outgrowth with rsMHC I plus compound compared with control levels: did not return to control levels | overall protection against the effects of rsMHC I (summary): partially protective | neurite outgrowth in cultures containing rsMHC I, compound added vs rsMHC I alone (Rp-cAMPS 20 uM): significantly enhanced neurite outgrowth; also recorded: partially neutralize the effects of rsMHC I

Nc1ncnc2c1ncn2[C@@H]1O[C@@H]2COP(=O)(O)O[C@H]2[C@H]1O [cAMP, cyclic adenosine monophosphate]
neurite outgrowth with rsMHC I plus compound compared with control levels: not statistically different from control levels | overall protection against the effects of rsMHC I (summary): partially protective | neurite outgrowth in cultures containing rsMHC I, compound added vs rsMHC I alone (Rp-cAMPS 20 uM): significantly enhanced neurite outgrowth; also recorded: partially neutralize the inhibitory action of rMHC I
